From publication PMC9520775, “Everolimus pharmacokinetics and exposure-response relationship in Japanese patients with advanced breast cancer” (Frontiers in Pharmacology, 2022)

Tested on: patients with advanced or metastatic breast cancer
Assay: Adverse events (CTCAE Ver. 4.0), dose-limiting toxicities and dose reductions under everolimus
Assay type: in vivo, human
From the text: This was a prospective, observational PK study. Patients with advanced or metastatic breast cancer who received everolimus between November 2015 and November 2018 at Kobe City Medical Center General Hospital were enrolled in this study. The main inclusion criteria included the following: age ≥20 years; Eastern Cooperative Oncology Group (ECOG) performance status (PS): 0 or 1; and adequate bone marrow, liver, and renal function. The main exclusion criteria were interstitial pneumonia or pulmonary fibrosis, HBsAg positive, and psychiatric or psychological symptoms that made it difficult to participate in the study. Every participant provided written informed consent. This study was conducted in accordance with the Declaration of Helsinki and approved by the Institutional Review Board, under Approval Number zn151103.
Based on the physician’s decision, the patients were prescribed a starting dose of either 5 or 10 mg everolimus once daily. The everolimus dose was reduced when a patient experienced adverse events higher than grade 2. The first reduced dose was 5 mg once daily, followed by the second reduced dose of 2.5 mg once daily or 5 mg every alternate day. In addition, everolimus doses could be increased if adverse events improved to grade 1 or less, or deemed inefficacious. The adverse events were evaluated weekly for the first month and then every 1–4 weeks, according to the Common Terminology Criteria for Adverse Events Ver. 4.0.
Statistical differences in everolimus trough concentrations, doses and body weights between patient cohorts were assessed using the Mann–Whitney test. Progression-free survival (PFS) was assessed using the Kaplan-Meier method and the log-rank test. All statistical analyses were performed using GraphPad Prism version 7.03 (San Diego, CA). p < 0.05 was considered statistically significant.

[1] = All patients (n = 18), Grade All
[2] = Initial dose: 5 mg/day (n = 6), Grade 1
[3] = Initial dose: 5 mg/day (n = 6), Grade 2
[4] = Initial dose: 5 mg/day (n = 6), Grade 3
[5] = Initial dose: 5 mg/day (n = 6), Grade 4
[6] = Initial dose: 5 mg/day (n = 6), Grade All
[7] = Initial dose: 10 mg/day (n = 12), Grade 1
[8] = Initial dose: 10 mg/day (n = 12), Grade 2
[9] = Initial dose: 10 mg/day (n = 12), Grade 3
[10] = Initial dose: 10 mg/day (n = 12), Grade 4
[11] = Initial dose: 10 mg/day (n = 12), Grade All

## CO[C@H]1C[C@@H]2CC[C@@H](C)[C@@](O)(O2)C(=O)C(=O)N2CCCC[C@H]2C(=O)O[C@H]([C@H](C)C[C@@H]2CC[C@@H](OCCO)[C@H](OC)C2)CC(=O)[C@H](C)/C=C(\C)[C@@H](O)[C@@H](OC)C(=O)[C@H](C)C[C@H](C)/C=C/C=C/C=C/1C [everolimus]
All patients (n = 18), Grade 1
  Adverse event, n: Diarrhea: 1
  Adverse event, n: Dysgeusia: 4
  Adverse event, n: Epistaxis: 6
  Adverse event, n: High cholesterol: 9
  Adverse event, n: Hyperglycemia: 4
  Adverse event, n: Hypertriglyceridemia: 8
  Adverse event, n: Hypokalemia: 6
  Adverse event, n: Interstitial lung disease: 3
  Adverse event, n: Malaise: 6
  Adverse event, n: Mucositis oral: 7
  Adverse event, n: Neutrophil count decreased: 2
  Adverse event, n: Platelet decrease: 9
  Adverse event, n: Rash: 11
All patients (n = 18), Grade 2
  Adverse event, n: Diarrhea: 4
  Adverse event, n: Dysgeusia: 1
  Adverse event, n: Epistaxis: 0
  Adverse event, n: High cholesterol: 2
  Adverse event, n: Hyperglycemia: 1
  Adverse event, n: Hypertriglyceridemia: 4
  Adverse event, n: Hypokalemia: 1
  Adverse event, n: Interstitial lung disease: 2
  Adverse event, n: Malaise: 1
  Adverse event, n: Mucositis oral: 10
  Adverse event, n: Neutrophil count decreased: 3
  Adverse event, n: Platelet decrease: 0
  Adverse event, n: Rash: 3
All patients (n = 18), Grade 3
  Adverse event, n: Diarrhea: 0
  Adverse event, n: Dysgeusia: 0
  Adverse event, n: Epistaxis: 0
  Adverse event, n: High cholesterol: 0
  Adverse event, n: Hyperglycemia: 0
  Adverse event, n: Hypertriglyceridemia: 0
  Adverse event, n: Hypokalemia: 1
  Adverse event, n: Interstitial lung disease: 0
  Adverse event, n: Malaise: 0
  Adverse event, n: Mucositis oral: 0
  Adverse event, n: Neutrophil count decreased: 1
  Adverse event, n: Platelet decrease: 0
  Adverse event, n: Rash: 0
All patients (n = 18), Grade 4
  Adverse event, n: Diarrhea: 0
  Adverse event, n: Dysgeusia: 0
  Adverse event, n: Epistaxis: 0
  Adverse event, n: High cholesterol: 0
  Adverse event, n: Hyperglycemia: 0
  Adverse event, n: Hypertriglyceridemia: 0
  Adverse event, n: Hypokalemia: 1
  Adverse event, n: Interstitial lung disease: 0
  Adverse event, n: Malaise: 0
  Adverse event, n: Mucositis oral: 0
  Adverse event, n: Neutrophil count decreased: 0
  Adverse event, n: Platelet decrease: 0
  Adverse event, n: Rash: 0
[1]
  Adverse event, n: Diarrhea: 5
  Adverse event, n: Dysgeusia: 5
  Adverse event, n: Epistaxis: 6
  Adverse event, n: High cholesterol: 11
  Adverse event, n: Hyperglycemia: 5
  Adverse event, n: Hypertriglyceridemia: 12
  Adverse event, n: Hypokalemia: 9
  Adverse event, n: Interstitial lung disease: 5
  Adverse event, n: Malaise: 7
  Adverse event, n: Mucositis oral: 17
  Adverse event, n: Neutrophil count decreased: 6
  Adverse event, n: Platelet decrease: 9
  Adverse event, n: Rash: 14
DLT (n = 13) vs no DLT (n = 18), Mann-Whitney test, p = 0.0058
  trough concentrations at DLTs compared with trough concentrations in the absence of DLTs: significantly higher
Dose 5 mg, BW 36.1–40.0 kg
  number of patients, DLTs (−): 1
Dose 5 mg, BW 40.1–45.0 kg
  number of patients, DLTs (−): 1
Dose 5 mg, BW 45.1–50.0 kg
  number of patients, DLTs (+): 1
Dose 5 mg, BW 50.1–55.0 kg
  number of patients, DLTs (+): 1
  number of patients, DLTs (−): 3
Dose 5 mg, BW 55.1–60.0 kg
  number of patients, DLTs (+): 3
  number of patients, DLTs (−): 2
Dose 10 mg, BW 36.1–40.0 kg
  number of patients, DLTs (+): 1
Dose 10 mg, BW 40.1–45.0 kg
  number of patients, DLTs (+): 1
  number of patients, DLTs (−): 1
Dose 10 mg, BW 45.1–50.0 kg
  number of patients, DLTs (+): 2
  number of patients, DLTs (−): 1
Dose 10 mg, BW 50.1–55.0 kg
  number of patients, DLTs (+): 2
Dose 10 mg, BW 55.1–60.0 kg
  number of patients, DLTs (+): 2
Dose 10 mg, BW 60.1–65.0 kg
  number of patients, DLTs (−): 1
Dose 10 mg, BW 66.1–70.0 kg
  number of patients, DLTs (−): 1
[2]
  Adverse event, n: Diarrhea: 0
  Adverse event, n: Dysgeusia: 1
  Adverse event, n: Epistaxis: 2
  Adverse event, n: High cholesterol: 4
  Adverse event, n: Hyperglycemia: 2
  Adverse event, n: Hypertriglyceridemia: 2
  Adverse event, n: Hypokalemia: 2
  Adverse event, n: Interstitial lung disease: 0
  Adverse event, n: Malaise: 1
  Adverse event, n: Mucositis oral: 2
  Adverse event, n: Neutrophil count decreased: 0
  Adverse event, n: Platelet decrease: 2
  Adverse event, n: Rash: 3
[3]
  Adverse event, n: Diarrhea: 1
  Adverse event, n: Dysgeusia: 1
  Adverse event, n: Epistaxis: 0
  Adverse event, n: High cholesterol: 0
  Adverse event, n: Hyperglycemia: 0
  Adverse event, n: Hypertriglyceridemia: 1
  Adverse event, n: Hypokalemia: 0
  Adverse event, n: Interstitial lung disease: 1
  Adverse event, n: Malaise: 1
  Adverse event, n: Mucositis oral: 4
  Adverse event, n: Neutrophil count decreased: 0
  Adverse event, n: Platelet decrease: 0
  Adverse event, n: Rash: 1
[4]
  Adverse event, n: Diarrhea: 0
  Adverse event, n: Dysgeusia: 0
  Adverse event, n: Epistaxis: 0
  Adverse event, n: High cholesterol: 0
  Adverse event, n: Hyperglycemia: 0
  Adverse event, n: Hypertriglyceridemia: 0
  Adverse event, n: Hypokalemia: 1
  Adverse event, n: Interstitial lung disease: 0
  Adverse event, n: Malaise: 0
  Adverse event, n: Mucositis oral: 0
  Adverse event, n: Neutrophil count decreased: 0
  Adverse event, n: Platelet decrease: 0
  Adverse event, n: Rash: 0
[5]
  Adverse event, n: Diarrhea: 0
  Adverse event, n: Dysgeusia: 0
  Adverse event, n: Epistaxis: 0
  Adverse event, n: High cholesterol: 0
  Adverse event, n: Hyperglycemia: 0
  Adverse event, n: Hypertriglyceridemia: 0
  Adverse event, n: Hypokalemia: 0
  Adverse event, n: Interstitial lung disease: 0
  Adverse event, n: Malaise: 0
  Adverse event, n: Mucositis oral: 0
  Adverse event, n: Neutrophil count decreased: 0
  Adverse event, n: Platelet decrease: 0
  Adverse event, n: Rash: 0
[6]
  Adverse event, n: Diarrhea: 1
  Adverse event, n: Dysgeusia: 2
  Adverse event, n: Epistaxis: 2
  Adverse event, n: High cholesterol: 4
  Adverse event, n: Hyperglycemia: 2
  Adverse event, n: Hypertriglyceridemia: 3
  Adverse event, n: Hypokalemia: 3
  Adverse event, n: Interstitial lung disease: 1
  Adverse event, n: Malaise: 2
  Adverse event, n: Mucositis oral: 6
  Adverse event, n: Neutrophil count decreased: 0
  Adverse event, n: Platelet decrease: 2
  Adverse event, n: Rash: 4
[7]
  Adverse event, n: Diarrhea: 1
  Adverse event, n: Dysgeusia: 3
  Adverse event, n: Epistaxis: 4
  Adverse event, n: High cholesterol: 5
  Adverse event, n: Hyperglycemia: 2
  Adverse event, n: Hypertriglyceridemia: 6
  Adverse event, n: Hypokalemia: 4
  Adverse event, n: Interstitial lung disease: 3
  Adverse event, n: Malaise: 5
  Adverse event, n: Mucositis oral: 5
  Adverse event, n: Neutrophil count decreased: 2
  Adverse event, n: Platelet decrease: 7
  Adverse event, n: Rash: 8
[8]
  Adverse event, n: Diarrhea: 3
  Adverse event, n: Dysgeusia: 0
  Adverse event, n: Epistaxis: 0
  Adverse event, n: High cholesterol: 2
  Adverse event, n: Hyperglycemia: 1
  Adverse event, n: Hypertriglyceridemia: 3
  Adverse event, n: Hypokalemia: 1
  Adverse event, n: Interstitial lung disease: 1
  Adverse event, n: Malaise: 0
  Adverse event, n: Mucositis oral: 6
  Adverse event, n: Neutrophil count decreased: 3
  Adverse event, n: Platelet decrease: 0
  Adverse event, n: Rash: 2
[9]
  Adverse event, n: Diarrhea: 0
  Adverse event, n: Dysgeusia: 0
  Adverse event, n: Epistaxis: 0
  Adverse event, n: High cholesterol: 0
  Adverse event, n: Hyperglycemia: 0
  Adverse event, n: Hypertriglyceridemia: 0
  Adverse event, n: Hypokalemia: 0
  Adverse event, n: Interstitial lung disease: 0
  Adverse event, n: Malaise: 0
  Adverse event, n: Mucositis oral: 0
  Adverse event, n: Neutrophil count decreased: 1
  Adverse event, n: Platelet decrease: 0
  Adverse event, n: Rash: 0
[10]
  Adverse event, n: Diarrhea: 0
  Adverse event, n: Dysgeusia: 0
  Adverse event, n: Epistaxis: 0
  Adverse event, n: High cholesterol: 0
  Adverse event, n: Hyperglycemia: 0
  Adverse event, n: Hypertriglyceridemia: 0
  Adverse event, n: Hypokalemia: 1
  Adverse event, n: Interstitial lung disease: 0
  Adverse event, n: Malaise: 0
  Adverse event, n: Mucositis oral: 0
  Adverse event, n: Neutrophil count decreased: 0
  Adverse event, n: Platelet decrease: 0
  Adverse event, n: Rash: 0
[11]
  Adverse event, n: Diarrhea: 4
  Adverse event, n: Dysgeusia: 3
  Adverse event, n: Epistaxis: 4
  Adverse event, n: High cholesterol: 7
  Adverse event, n: Hyperglycemia: 3
  Adverse event, n: Hypertriglyceridemia: 9
  Adverse event, n: Hypokalemia: 6
  Adverse event, n: Interstitial lung disease: 4
  Adverse event, n: Malaise: 5
  Adverse event, n: Mucositis oral: 11
  Adverse event, n: Neutrophil count decreased: 6
  Adverse event, n: Platelet decrease: 7
  Adverse event, n: Rash: 10
All patients, n = 18
  stomatitis, incidence, all grade: 94%
From the starting dose of 10 mg (7/18)
  proportion of all patients who required a second dose reduction: 39%
Of 18 patients, during the 10 months of the study period
  number of patients with dose-limiting toxicities (DLTs): 13
Starting dose of 5 mg (5/6)
  proportion of patients who required dose reduction owing to adverse drug reactions: 83%
Three patients, clarithromycin 200 mg twice daily for 7 days (CYP3A4 inhibitor) during everolimus treatment
  DLT while being treated with clarithromycin: no DLT
